Data on one molecule can be found in PubChem BioAssay (NCI).

Test systems include NCI-H460 lung; SW-620 colon; MCF7 breast; RPMI-8226 leukemia; MDA-MB-435; HT29 colon; KM12 colon; K-562 leukemia; UO-31 renal; CCRF-CEM leukemia.
What all share (assay): DTP human tumour cell line panel, 48 h

The GI50 is the concentration that inhibits growth by half. Usually TGI stands for the concentration at which net growth stops. A high value points to less potent growth arrest.

Molecules are shown by their SMILES.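 Tested at 5 concentrations; 48 h exposure; 96-well plates; endpoints linearly interpolated, else capped at highest concentration. GI50 = concentration required for 50% inhibition of growth. TGI is the concentration that stops growth completely.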

On to `OC(c1ccc(Cl)cc1)(c1ccc(Cl)cc1)C(O)(c1ccc(Cl)cc1)c1ccc(Cl)cc1`, for which the GI50 in the test with NCI-H460 lung is 3.11 µM; with SW-620 colon, 3.24 µM; in the test with MCF7 breast, 3.27 µM; with RPMI-8226 leukemia, 3.27 µM; with MDA-MB-435 it was 2.94 µM; in the test with HT29 colon, 1.72 µM. The GI50 in the test on KM12 colon was 4.12 µM; in the test on K-562 leukemia, 3.56 µM; with UO-31 renal, 2.89 µM; in the test with CCRF-CEM leukemia, 3.41 µM. Further, the TGI in the test with NCI-H460 lung, in the test with SW-620 colon, in the test on MCF7 breast, with RPMI-8226 leukemia, in the test with MDA-MB-435 and in the test on HT29 colon was over 100 µM in each case. The TGI with KM12 colon, with K-562 leukemia, with UO-31 renal and in the test with CCRF-CEM leukemia was over 100 µM throughout.
